According to patent US20120277312A1, “Ethylgallate and Related Compounds as a Treatment for Sepsis and Septic Shock” (priority 2009, published 2012):
Entries after “also recorded” stand apart in the source; their conditions may differ.

Experiments:
lysozyme = target: T1, lysozyme (Homo sapiens, UniProt P61626); test: Lysozyme-induced hydrogen peroxide generation measured by Ultra Amplex Red assay; assay type: biochemical; conditions: 6.5×10^−6 mol/L lysozyme
T1 sequence (P61626 19-148): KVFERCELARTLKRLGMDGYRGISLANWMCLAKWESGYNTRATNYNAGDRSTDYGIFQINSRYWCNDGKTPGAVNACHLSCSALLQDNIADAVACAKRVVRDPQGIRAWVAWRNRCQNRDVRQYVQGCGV

[1] = tested on: lysozyme's vasodilatory effect in canine carotid artery preparation; test: Lysozyme-induced vasodilation in canine carotid artery preparation (in-vitro); conditions: canine carotid artery preparation, in-vitro
Protocol: Lysozyme produces vasodilation by intrinsically generating hydrogen peroxide (H2O2) that leads to activation of signaling pathways resulting in these hemodynamic effects (7).
Ethyl gallate is added to food as an antioxidant. It is the ethyl ester of gallic acid. Though found naturally in a variety of plant sources including walnuts (8), ethyl gallate is produced from gallic acid and ethanol (9). […] It is of note that if a substance could not inhibit lysozyme's effect in-vitro, then it would be worthless to pursue an in-vivo study.

[2] = tested on: POX-induced vasodilation in carotid and superior mesenteric arterial preparations; test: Peroxacetic acid (POX)-induced vasodilation in carotid and superior mesenteric arterial preparations; parameters: species or system canine
Source text: POX is a hydroperoxide (slightly different from the molecule of hydrogen peroxide) that also may be released in septic shock by macrophages and inflammatory cells. […] However, the pathway by which POX caused vasodilation is much different than that caused by lysozyme. […] To some extent, therefore, the improvement in hemodynamics previously observed when ethyl-gallate was infused in our in-vivo study could have also been related to ethyl-gallate's inhibition of the POX pathway in addition to ethyl-gallate's inhibitory-effect on lysozyme mediated pathways.
The only similarity found between lysozyme and POX is that POX's mechanism of action is also independent of the endothelium and nitric oxide formation, since we could not prevent POX's vasodilatory effect by removal of the endothelium or by nitric oxide inhibition. In contrast to lysozyme, POX seems to cause vasodilation is by activation of an enzyme in the vascular tissue called prostaglandin H synthase (PHS). PHS has an important mechanism of action, in that after activation by hydroperoxides (such as POX), it can in turn activate the cyclooxygenase pathway leading to vasodilation.

catalase = target: T2, catalase (Homo sapiens, UniProt P04040); test: Conversion of catalase to compound I (wave-scan spectroscopy); assay type: biochemical
T2 sequence (P04040 2-527 limits assumed): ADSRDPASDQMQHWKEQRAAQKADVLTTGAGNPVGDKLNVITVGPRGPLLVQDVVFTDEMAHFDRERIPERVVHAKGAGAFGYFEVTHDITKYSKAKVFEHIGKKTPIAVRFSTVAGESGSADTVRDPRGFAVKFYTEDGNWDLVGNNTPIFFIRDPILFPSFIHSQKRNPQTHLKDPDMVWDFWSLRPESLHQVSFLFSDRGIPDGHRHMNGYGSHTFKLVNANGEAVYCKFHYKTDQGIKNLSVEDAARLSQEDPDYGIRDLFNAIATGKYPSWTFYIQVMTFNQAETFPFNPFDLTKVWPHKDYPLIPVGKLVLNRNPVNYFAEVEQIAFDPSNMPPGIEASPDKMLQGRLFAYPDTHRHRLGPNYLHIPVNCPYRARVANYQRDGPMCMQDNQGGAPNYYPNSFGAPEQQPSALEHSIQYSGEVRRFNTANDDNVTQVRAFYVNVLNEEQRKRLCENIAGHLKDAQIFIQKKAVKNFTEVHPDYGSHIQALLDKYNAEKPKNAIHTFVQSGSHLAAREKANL
Source text: (§1) This generation appears to involve the mechanism described by Wentworth et al in which proteins can utilize water as a catalyst to generate H2O2 (12) Once formed by lysozyme, H2O2 then reacts with intrinsic catalase to form a species of catalase termed Compound I (2) Compound I then acts to generate cyclic-guanosine monophosphate which in turn causes vasodilation. […] These as well as other mechanisms may account for the efficacy of ethyl-gallate treatment in septic shock.

[3] = Hydrogen peroxide scavenging (Amplex Red assay, electrochemical techniques, glucosidase/glucose assay); assay type: biochemical; conditions: multiple methodologies
Source text: as §1

[4] = In-vivo study of mannitol (not further described)
Protocol: Ethyl gallate is added to food as an antioxidant. It is the ethyl ester of gallic acid. Though found naturally in a variety of plant sources including walnuts (8), ethyl gallate is produced from gallic acid and ethanol (9). […] Thus, ethyl gallate, methyl gallate, and ethyl 3,4 dihydroxybenzoate has unique properties for the treatment of septic shock. It is of note that if a substance could not inhibit lysozyme's effect in-vitro, then it would be worthless to pursue an in-vivo study.

| Compound | block of lysozyme's vasodilatory effect [1] | further results |
| --- | --- | --- |
| C[S+](C)[O-] [DMSO] | – | inhibition of lysozyme-induced hydrogen peroxide generation (lysozyme): do not inhibit |
| CC(=O)N[C@@H](CS)C(=O)O [N-acetylcyteine] | failed to block | – |
| [Ba] [barium] | – | inhibition of vasodilation caused by POX [2]: could be prevented |
| CC(/C=C/C=C(\C)C(=O)O[C@@H]1O[C@H](CO[C@@H]2O[C@H](CO)[C@@H](O)[C@H](O)[C@H]2O)[C@@H](O)[C@H](O)[C@H]1O)=C\C=C\C=C(C)\C=C\C=C(/C)C(=O)O[C@@H]1O[C@H](CO[C@@H]2O[C@H](CO)[C@@H](O)[C@H](O)[C@H]2O)[C@@H](O)[C@H](O)[C@H]1O [crocin] | failed to block | – |
| COc1cc(/C=C/C(=O)CC(=O)/C=C/c2ccc(O)c(OC)c2)ccc1O [curcumin] | failed to block | – |
| O=c1oc2c(O)c(O)cc3c(=O)oc4c(O)c(O)cc1c4c23 [ellagic acid] | failed to block | – |
| O=C(O[C@@H]1Cc2c(O)cc(O)cc2O[C@@H]1c1ccc(O)c(O)c1)c1cc(O)c(O)c(O)c1 [epicathechin gallate] | failed to block | – |
| O=C(O[C@@H]1Cc2c(O)cc(O)cc2O[C@@H]1c1cc(O)c(O)c(O)c1)c1cc(O)c(O)c(O)c1 [epigalloccatechin gallate] | failed to block | – |
| CCOC(=O)c1ccc(O)c(O)c1 [ethyl 3,4-dihydroxybenzoate] | blocked | – |
| O=C(O)c1cc(O)c(O)c(O)c1 [gallic acid, reference compound] | could not block; also recorded: failed to block | inhibition of degradation of catalase to compound I (catalase): can also prevent; scavenging of hydrogen peroxide [3]: can scavenge |
| COc1ccccc1O [guaicol] | failed to block | – |
| COc1ccc2c(c1)c(CC(=O)O)c(C)n2C(=O)c1ccc(Cl)cc1 [indomethacin] | – | inhibition of vasodilation caused by POX [2]: could be inhibited |
| C=C(C)[C@H]1CC=C(C)CC1 [limonene] | failed to block | – |
| O=c1cc(-c2ccc(O)c(O)c2)oc2cc(O)cc(O)c12 [luteolin] | failed to block | – |
| OC[C@@H](O)[C@@H](O)[C@H](O)[C@H](O)CO [mannitol] | worked | inhibition of lysozyme-induced hydrogen peroxide generation (lysozyme): do not inhibit; effect in-vivo [4]: did not have a positive effect |
| COC(=O)c1cc(O)c(O)c(O)c1 [methyl gallate] | blocked | – |
| [K+] [potassium] | – | inhibition of vasodilation caused by POX [2]: could be prevented |
| CCCOC(=O)c1cc(O)c(O)c(O)c1 [propyl gallate] | failed to block | – |
| O.O.O=c1c(O)c(-c2ccc(O)c(O)c2)oc2cc(O)cc(O)c12 [quercetin dihydrate] | failed to block | – |
| N[C@@H](CCC(=O)N[C@@H](CS)C(=O)NCC(=O)O)C(=O)O [reduced glutathione] | failed to block | – |
| O=C1O[C@H]([C@@H](O)CO)C([O-])=C1O.[Na+] [sodium ascorbate] | failed to block | – |
| O=C([O-])c1ccccc1.[Na+] [sodium benzoate] | failed to block | – |
| catechin gallate | failed to block | – |
